Experimental data as given in patent US6284914A, “Highly water-soluble metalloproteinase inhibitors” (Fuji Yakuhin Kogyo Kabushiki Kaisha, priority 1995, dated 2001).
Converted amounts (≈) assume the structure as drawn. Where a name gives a salt, the structure may show the parent alone.

Tests used:
[1] = target: T1, TNF-α converting enzyme (Homo sapiens, UniProt P78536); assay: Assay for Suppression of TNF-α Production (LPS-stimulated U937 cells); type: cell-based; conditions: U937 cells (PMA-differentiated), Lipopoplysaccaride 0.1 μg/ml, 37° C., 6 hours, TNF-α in supernatant; read-out: Inhibitory activities for TNF-α converting enzyme, IC50 value
T1 construct: Human monocyte derived leukemia cell-line U937; endogenous in cells; host or cells: U937 (PMA-differentiated, LPS-stimulated)
T1 sequence (P78536 215-824): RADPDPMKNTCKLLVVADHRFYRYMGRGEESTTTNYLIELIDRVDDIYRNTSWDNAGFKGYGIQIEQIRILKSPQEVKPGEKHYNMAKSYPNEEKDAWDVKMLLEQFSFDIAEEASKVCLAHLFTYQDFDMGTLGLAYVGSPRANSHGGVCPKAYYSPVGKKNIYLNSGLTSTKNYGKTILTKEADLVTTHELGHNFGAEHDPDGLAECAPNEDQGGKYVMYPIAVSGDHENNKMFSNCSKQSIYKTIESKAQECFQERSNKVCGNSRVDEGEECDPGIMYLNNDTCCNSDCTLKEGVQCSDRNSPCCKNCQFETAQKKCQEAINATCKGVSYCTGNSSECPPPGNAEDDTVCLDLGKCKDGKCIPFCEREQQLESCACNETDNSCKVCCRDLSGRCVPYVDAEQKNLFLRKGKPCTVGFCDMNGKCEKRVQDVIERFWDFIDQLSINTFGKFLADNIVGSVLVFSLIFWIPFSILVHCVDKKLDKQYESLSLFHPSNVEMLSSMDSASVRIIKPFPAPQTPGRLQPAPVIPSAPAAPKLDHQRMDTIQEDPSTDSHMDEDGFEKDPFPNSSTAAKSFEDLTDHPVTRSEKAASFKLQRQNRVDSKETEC
Protocol: Human monocyte derived leukemia cell-line U937 [5% bovine fetal serum (Men-eki Seibutsu Ken) was added to RPMI1640 (Nissui Seiyaku) and incubated in a 5% CO2 incubation chamber at 37° C., whereby 1×10^6 cells/1 ml were placed into each well of a multi-well plate and then incubated in presence of Phorbol 12-myristate 13-acetate (10^-7 M, Wako Junyaku) overnight and differentiated to macrophage like cells.] was added with Lipopoplysaccaride (0.1 μg/ml, Sigma) derived from E.coli 0127:B8 strain alone or together with a compound in Examples, and incubated in a 5% CO2 incubation chamber at 37° C. for 6 hours. After the incubation, the culture medium was taken and centrifuged at 3000 g for 10 min., whereby the supernatant was diluted with purified water forthe measurement using the TNF-α measurement kit (Genzyme) (Table 2).

[2] = target: T2, stromelysin (MMP-3) (Homo sapiens, UniProt P08254); assay: Assay for Stromelysin Inhibitory Activity (MMP-3); type: biochemical; conditions: fluorescein-labeled casein substrate, 37° C., 2 hours, pH 7.8; read-out: Inhibitory activities for matrix metalloproeinases (MMPs), MMP-3, IC50 value
T2 construct: endogenous in cells; host or cells: human fibroblast
T2 sequence (P08254 100-477): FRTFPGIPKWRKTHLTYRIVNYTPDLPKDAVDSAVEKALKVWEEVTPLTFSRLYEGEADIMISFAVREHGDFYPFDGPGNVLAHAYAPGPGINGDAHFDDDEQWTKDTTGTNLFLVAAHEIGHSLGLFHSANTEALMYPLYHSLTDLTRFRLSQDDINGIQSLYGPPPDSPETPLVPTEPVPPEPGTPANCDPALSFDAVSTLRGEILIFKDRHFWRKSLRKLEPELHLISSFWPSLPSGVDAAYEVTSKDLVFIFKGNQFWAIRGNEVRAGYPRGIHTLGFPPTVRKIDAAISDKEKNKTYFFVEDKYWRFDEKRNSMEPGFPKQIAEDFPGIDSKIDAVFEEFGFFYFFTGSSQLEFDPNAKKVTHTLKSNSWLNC
Protocol: (§1) Inhibitory activities of the compounds represented by the general formula (I) according to the invention for collagenase (metalloproteinase concerned with a tissue destruction) derived from human fibroblast were tested by the method of Y. Murawaki et al., [Journal of Hepatology, 18, p. 328-334 (1993)], and their inhibitory activities for stromelysin derived from human fibroblast were measured by the method of S. S. Twining et al., [Anal. Biochem., 143, p. 30 (1984)].
Inhibitory activities for stromelysin (MMP-3) of the compounds of Examples and comparative compounds were measured by the method of S. S. Twining et al., [Anal. Biochem., 143, p. 30 (1984)]. The latent prostromelysin was incubated with human plasmin (20 μg/ml) for the activation at 37° C. for 2 hours, and then the incubate was added with diisopropyl fluorophosphate solution (2.8 mg/ml) to stop the reaction. The assay was done by using casein labeled with fluorescein as the substrate. The activated stromelysin was added to a substrate solution (1 mg/ml) in Tris HCl buffer (50 mM, pH 7.8) containing calcium chloride (10 mM). The obtained solution was incubated at37° C. for 2 hours. The enzyme digestion forthesubstrate was stopped by adding 5% trichloroacetic acid. The indigested substrate was sedimented by centrifuging at 3000 g for 20 min. The supernatant was taken and added with Tris HCl buffer (0.5 M, pH 8.5), whereby its intensity of fluorescence was determined by the excitation wavelength (495 nm) and the measured wavelength (520 nm), and the inhibitory activity was obtained. IC50 is a concentration of a compound assayed in the digesting enzyme, whereby the splitting of the substrate was decreased to 50% compared with that attained by the enzyme alone.

[3] = Measurement of Solubility in Water; type: physicochemical; conditions: water, distilled water, 20±5° C., 30 min., checked by eye
Protocol: A compound of Examples or a comparative compound was added to distilled water and shaken vigorously at 20±5° C. for 30 seconds at 5 min. interval. After 30 min., it was checked by watching with eye whether the compound was dissolved or not.

[4] = target: T3, collagenase (MMP-1) (Homo sapiens, UniProt P03956); assay: Assay for Collagenase Inhibitory Activity (MMP-1); type: biochemical; conditions: fluorescein-labeled bovine type I collagen substrate, 35° C., 2 hours, pH 7.5; read-out: Inhibitory activities for matrix metalloproeinases (MMPs), MMP-1, IC50 value
T3 construct: endogenous in cells; host or cells: human fibroblast
T3 sequence (P03956 100-469): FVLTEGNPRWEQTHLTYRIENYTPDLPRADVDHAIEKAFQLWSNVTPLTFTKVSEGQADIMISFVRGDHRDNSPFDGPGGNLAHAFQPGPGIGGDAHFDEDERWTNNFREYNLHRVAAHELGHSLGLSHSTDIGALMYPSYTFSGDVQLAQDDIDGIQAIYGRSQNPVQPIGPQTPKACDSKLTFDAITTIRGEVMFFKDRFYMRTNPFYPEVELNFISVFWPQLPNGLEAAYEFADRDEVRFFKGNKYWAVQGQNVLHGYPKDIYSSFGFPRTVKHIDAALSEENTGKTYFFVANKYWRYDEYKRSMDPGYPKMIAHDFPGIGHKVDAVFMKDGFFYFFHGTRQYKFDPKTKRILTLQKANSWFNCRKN
Protocol: as §1
Inhibitory activities for collagenase (MMP-1) of the compounds of Examples and comparative compounds were measured by the method of Y. Murawaki et al., [Journal of Hepatology, 18, p. 328-334 (1993)]. The latent procollagenase was activated by incubating with mercury aminophenylacetate (2 mM) at 35° C. for 2 hours. The assay was done by using bovine type I collagen labeled with fluorescein as a substrate. The activated collagenase was added to the substrate solution (0.5 mg/ml) in Tris HCl buffer (50 mM, pH 7.5) containing sodium chloride (0.4 M) and calcium chloride (10 mM). The obtained solution was incubated at 35° C. for 2 hours. The enzyme digestion was stopped by the addition of o-phenanthroline (80 mM). The mixture was added with pig spleen elastase solution (25 μg/ml) in the above Tris HCl buffer, and incubated 37° C. for 10 min. The obtained solution was added with 70% ethanol and Tris HCl buffer (170 mM, pH 9.5) containing sodium chloride (0.61 M), whereby the indigested substrate was sedimented by centrifuging at 3000 g for 20 min. The supernatant was taken, and its intensity of fluorescence was determined by the excitation wavelength (495 nm) and the measured wavelength (520 nm), and the inhibitory activity was obtained. IC50 is a concentration of a compound assayed in the digesting enzyme, whereby the splitting of the substrate was decreased to 50% compared with that attained by the enzyme alone.

| IC50 [1] | IC50 [2] | solubility at 0.5 h [3] | IC50 [4] | Structure (SMILES) |
| --- | --- | --- | --- | --- |
| 500 nM |  |  |  | CNC(=O)[C@H](Cc1ccc(S(=O)(=O)O)cc1)NC(=O)[C@H](CC(C)C)C(CSc1cccs1)C(=O)NO (single isomer, unassigned) [Example 5, N-[4-(N-Hydroxyamino)-2(R)-isobutyl-3(R or S)-(thienylthiomethylene)succinyl]-L-4'-sulfophenylalanine-N-methylamide, Monosodium Salt] |
| 98 nM | 6 nM | 30 mg/mL (≈ 57.2 mM) | 6 nM | CNC(=O)[C@H](Cc1ccc(NC(=N)N)cc1)NC(=O)[C@H](CC(C)C)C(CCCc1ccccc1)C(=O)NO (single isomer, unassigned) [Example 8, N-[4-(N-Hydroxyamino)-2(R)-isobutyl-3(R or S)-(3-phenyltrimethylene)succinyl]-L-4'-guanidophenylalanine-N-methylamideMonoacetate] |
| 400 nM | 9 nM |  | 5.8 nM | CCC(=N)NCc1ccc(C[C@H](NC(=O)[C@H](CC(C)C)C(CCCc2ccccc2)C(=O)NO)C(=O)NC)cc1 (single isomer, unassigned) [Example 11, N-[4-(N-Hydroxyamino)-2(R)-isobutyl-3(R or S)-(3-phenyltrimethylene)succinyl]-L-4'-propionimidoyliminomethylenephenylalanine-N-methylamide Monoacetate] |
|  | 5.8 nM | 120 mg/mL | 8 nM | CNC(=O)[C@H](Cc1cccc(OS(=O)(=O)O)c1)NC(=O)[C@H](CC(C)C)C(CCCc1ccccc1)C(=O)NO (single isomer, unassigned) [Example 15, N-[4-(N-Hydroxyamino)-2(R)-isobutyl-3(R or S)-(3-phenyltrimethylene)succinyl]-O-sulfo-L-meta-tyrosine-N-methylamide, Monosodium Salt] |
|  | 10 nM | 100 mg/mL | 8 nM | COc1ccc(NC(=O)[C@H](Cc2ccc(OS(=O)(=O)O)cc2)NC(=O)[C@H](CC(C)C)C(CCCc2ccccc2)C(=O)NO)cc1 (stereo partly drawn) [Example 7, N-[4-(N-Hydroxyamino)-2(R)-isobutyl-3(RS)-(3-phenyltrimethylene)succinyl]-O-sulfo-L-tyrosine-N-p-methoxyphenylamide, Monosodium Salt] |
| 7000 nM |  |  |  | CNC(=O)[C@H](Cc1ccc(NC(=N)N)cc1)NC(=O)[C@H](CC(C)C)[C@H](O)C(=O)NO [Example 16, N-[4-(N-Hydroxyamino)-2(R)-isobutyl-3(S)-hydroxysuccinyl]-L-4'-guanidophenylalanine-N-methylamide Monoacetate] |

More lines, now with the values behind:

| Structure (SMILES) | IC50 [1] | IC50 [2] | solubility at 0.5 h [3] | IC50 [4] |
| --- | --- | --- | --- | --- |
| CNC(=O)[C@H](Cc1ccc(O)cc1)NC(=O)[C@H](CC(C)C)[C@H](CCCc1ccccc1)C(=O)NO [Comparative Compound 2, N-[4-(N-Hydroxyamino)-2(R)-isobutyl-3(S)-phenyltrimethylenesuccinyl]-L-tyrosine-N-methylamide, reference compound] |  | 8 nM | < 1 mg/mL | 0.15 nM |
| CCCOC[C@H](C(=O)N[C@@H](Cc1ccc(OC)cc1)C(=O)NC)[C@H](CSC(C)C)C(=O)NO [Comparative Compound 4, N-[4-(N-Hydroxyamino)-2(R)-n-propyloxymethylene-3(S)-isopropylthiomethylenesuccinyl]-O-methyl-L-tyrosine-N-methylamide, reference compound] |  | 100 nM | < 1 mg/mL | 11 nM |
| CNC(=O)[C@H](Cc1ccc(S(=O)(=O)O)cc1)NC(=O)C(CC(=O)NO)CC(C)C (stereo partly drawn) [Example 2, N-[4-(N-Hydroxyamino)-2(RS)-isobutylsuccinyl]-L-4'-sulfophenylalanine-N-methylamide, Monosodium Salt] |  | 200 nM | > 250 mg/mL | 4.2 nM |
| CNC(=O)[C@H](Cc1ccc(S(=O)(=O)O)cc1)NC(=O)[C@H](CC(C)C)C(CCCc1ccccc1)C(=O)NO (stereo partly drawn) [Example 4, N-[4-(N-Hydroxyamino)-2(R)-isobutyl-3(RS)-(3-phenyltrimethylene)succinyl]-L-4'-sulfophenylalanine-N-methylamide, Monosodium Salt] | 510 nM |  | 150 mg/mL |  |
